BigSolDB 2.1

NC(=O)c1cccnc1
solubility (mole fraction)
Details	in acetone	in ethanol	in ethyl acetate	in isobutanol	in isopropanol	in methanol	in methyl acetate	in n-butanol	in n-butyl acetate	in n-propanol
283.15 K	0.0116	0.0263	0.00797	0.0222	0.0187	0.0541	0.00929	0.0235	0.00936	0.0219
288.15 K	0.0134	0.032	0.00871	0.0248	0.023	0.0643	0.0101	0.0274	0.00955	0.0266
293.15 K	0.0164	0.0374	0.01	0.0292	0.0281	0.0748	0.0117	0.0315	0.01	0.0321
298.15 K	0.0191	0.0444	0.0112	0.0345	0.0328	0.0876	0.0135	0.0362	0.0107	0.0378
303.15 K	0.0234	0.0537	0.0129	0.0392	0.0396	0.102	0.0156	0.0416	0.0114	0.045
308.15 K	0.0286	0.0638	0.0145	0.0456	0.048	0.121	0.0179	0.0482	0.0124	0.0542
313.15 K	0.0342	0.0766	0.0163	0.0544	0.0573	0.141	0.0209	0.0566	0.0135	0.0647
318.15 K	0.0392	0.0912	0.0182	0.0637	0.0673	0.166	0.0235	0.0664	0.0153	0.0766
323.15 K	0.0472	0.11	0.0213	0.0754	0.0801	0.192	0.0272	0.0774	0.0181	0.0924
